Laboratory results from patent publication US20260262641A1 (priority 2023, published 2026).
Values after ≈ are worked out from the molar mass of the structure shown.

Assays:
[1] = tested on: insecticide-susceptible population of redlegged earth mite (H. destructor; RLEM); assay: whole plant or invertebrate; conditions: Halotydeus destructor, 24 h; for LC50: read-out: LC50 (95% CI)
Protocol: (§1) The insecticide-susceptible H. destructor population tested in this bioassay was collected from burr medic (Medicago polymorpha) and barley grass (Hordeum leporinum) in Moulamein, NSW (−35.102, 144.026), a site with no known history of insecticide application. […] Mites were collected via suction using a Stihl SH55 blower vacuum, placed in plastic containers with paper towel and vegetation, and transported back to the laboratory, where they were stored at 4° C. until testing.
(§2) Serial dilutions were prepared for each insecticide (Table 9), with the addition of a non-ionic surfactant (Tween 20) at 0.01% to aid the spread of the insecticide and ensure even coating. […] Nine concentrations of bifenthrin were tested, ranging from 1×10^−5 to 10 times the field rate of 40 mL diluted in 100 L of water (100 mg a.i./L). Seven concentrations of omethoate were tested, ranging from 1×10^−5 to 10 times the field rate of 100 mL in 100 L of water (290 mg a.i./L).
(§3) Six vials were coated per concentration and were left to dry overnight. Control vials were treated in the same way, except water (with the addition of 0.01% Tween) was used. The next day, eight individual H. destructor were then placed into each vial along with 2-3 leaves of common vetch (Vicia sativa), which provided food and humidity. Vials were then sealed with a screw lid and placed in a controlled temperature cabinet at 18° C. After 24-hours exposure, mites were scored as alive (moving freely), incapacitated (inhibited movement), or dead (no movement over a 5 second period).
(§4) Dose-response curves were generated by plotting percentage mortality against log concentration. A series of logistic models were used to quantify the sensitivity of H. destructor to each chemical and to test whether any differences in sensitivity were present between the two populations. Logistic regression is well suited for the analysis of binary response data (e.g., dead/alive). Each model included chemical concentration and H. destructor population as fixed-effect predictors, which allowed testing for whether populations had average differences in mortality (i.e., model intercept) via F tests. It was then determined if populations had differences in mortality that were dependent on chemical concentration (i.e., differences in regression slopes) by comparing the inclusion of a population×concentration predictor (i.e., allowing slopes to vary between populations). […] The resulting LC50 values were used to quantify the level of insecticide resistance (resistance ratios) relative to the known insecticide-susceptible population. All analyses were conducted using R version 4.3.1 (R Development Core Team 2023).

[2] = tested on: insecticide-resistant population of redlegged earth mite (H. destructor; RLEM); assay: whole plant or invertebrate; conditions: for LC50: read-out: LC50 (95% CI); for difference between insecticide-susceptible and resistant populations in response (in words): P < 0.05 level
Protocol: as §1, §2, §3, §4

[3] = tested on: redlegged earth mite (H. destructor; RLEM); assay: whole plant or invertebrate; conditions: for LC50: read-out: LC50 (95% CI)
Protocol: On the 14th of May 2022, H. destructor were collected from capeweed (Arctotheca calendula) in South Morang, Victoria (−37.625, 145.110), a site with no known history of insecticide application. Mites were collected via suction using a Stihl SH55 blower vacuum, placed in plastic containers with paper towel and vegetation, and transported back to the laboratory, where they were stored at 4° C. until testing.
Serial dilutions were prepared for each insecticide (Table 1), with the addition of a non-ionic surfactant (Tween 20) at 0.01% to aid the spread of the insecticide and ensure even coating. […] Nine concentrations of pyridaben ranging from the proposed field rate of 1480 mL diluted in 100 L of water (1998 mg a.i./L) to 1×10^−5 were serially diluted and tested along with a water control. Eight concentrations of omethoate, ranging from 10 times the field rate of 100 mL diluted in 100 L of water (290 mg a.i./L) to 1×10^−5, were tested along with a water control. Seven concentrations of bifenthrin, ranging from 10 times the field rate of 40 mL diluted in 100 L of water (100 mg a.i./L) to 1×10^−5, were tested along with a water control. For each insecticide concentration tested, approximately 10 mL of solution was poured into a 15 mL plastic vial and swirled to ensure a complete coating, with excess liquid removed. Six vials were coated per concentration and were left to dry overnight. Control vials were treated in the same way, except water (with the addition of 0.01% Tween) was used.
as §3, with “Approximately” for “Six vials were coated per concentration and were left to dry overnight. Control vials were treated in the same way, except water (with the addition of 0.01% Tween) was used. The next day,”
Dose-response curves were generated by plotting percentage mortality against log concentration. […] Logistic regression is well suited for the analysis of binary response data (e.g., dead/alive). All analyses were conducted using R version 3.3.1 (R Development Core Team 2022).

[4] = tested on: redlegged earth mite (H. destructor; RLEM); assay: Field trial in canola, pre- or post-emergent control of RLEM (Example 5); format: in vivo, Halotydeus destructor; conditions: application timing B (early post-emergent, 1 to 2 leaf canola)
Protocol: A field trial was conducted in canola cv. Garrison, to evaluate fenpyroximate for control of redlegged earth mite (H. destructor; RLEM) as a pre- or post-emergent application. The trial was located at Beverley, Western Australia (−32.2248085, 117.0268493). The canola was sown on 13th June 2023. […] All treatments were applied using a hand boom fitted with flat fan nozzles in a spray volume of 100 L/ha.
The density of RLEM was assessed 33 days after the second application timing by counting the number of mites per plant.
(§5) All data was statistically analyzed using analysis of variance and Fisher's protected least significant different test (Fishers LSD). The level of significance for all tests was P<0.05.

[5] = tested on: couch mite (Aceria cynodoniensis); assay: Field trial in Santa Ana couch turfgrass, control of couch mite (Example 3); format: in vivo; conditions: for Biomass and vigor (0-10), 42 DAA2 / Biomass and vigor (0-10), Pre-spray: 0 to 10 rating scale; for Biomass and vigor (0-10), 42 DAA2 / NDVI, 42 DAA2 / % Incidence mite damage, 42 DAA2: product rate mL/ha: Prophesy 500, Thumper 2000 (+ BS 1000 0.25% v/v); for Biomass and vigor (0-10), 42 DAA2 / NDVI, 42 DAA2: Fenpyroximate 50 SC 4000; for NDVI, 42 DAA2 / NDVI, Pre-spray: Greenseeker; for % Incidence mite damage, 42 DAA2: 42 days after second application, Fenpyroximate 50 SC 4000 (200 g ai/ha); for Biomass and vigor (0-10), Pre-spray / NDVI, Pre-spray / % Incidence mite damage, Pre-spray: Pre-spray (baseline); for % Incidence mite damage, Pre-spray: witches' broom
Protocol: A field trial was conducted in Santa Ana couch turfgrass, to evaluate fenpyroximate for control of couch mite (Aceria cynodoniensis). The trial was located at Terrey Hills Golf and Country Club, New South Wales (−33.668, 151.217). […] All treatments were applied using a hand boom fitted with XR11004 nozzles and in a spray volume of 430 L/ha.
The incidence of couch mite damage, to the terminal growth point (known as witches' broom) was assessed 42 days after the second application. Turf biomass and vigor were assessed at the same timing on a 0 to 10 rating scale, along with NDVI using a Greenseeker.
as §5

[6] = read-out: % RLEM mortality, Susceptible
[7] = Halotydeus destructor, 24 h, read-out: % RLEM mortality, Resistant
[8] = Halotydeus destructor, 24 h, read-out: % RLEM mortality

## Cc1c(COC(=O)[C@@H]2[C@H](/C=C(\Cl)C(F)(F)F)C2(C)C)cccc1-c1ccccc1 (racemic) [Bifenthrin]
[1]; [6]
  mortality at 0.001 µg/mL: 7%
  mortality at 0.01 µg/mL: 4.7%
  mortality at 0.03 µg/mL: 17.4%
  mortality at 0.1 µg/mL: 74.3%
  mortality at 0.3 µg/mL: 98.1%
  mortality at 1 µg/mL: 100%
  mortality at 10 µg/mL: 100%
  mortality at 100 µg/mL: 100%
  mortality at 1000 µg/mL: 100%
[1]
  LC50: 0.053 µg/mL (≈ 0.125 µM)
[2]
  Resistance ratio: 265.09
  difference between insecticide-susceptible and resistant populations in response (in words): significant difference
[2]; [7]
  mortality at 0.001 µg/mL: 4.4%
  mortality at 0.01 µg/mL: 9.3%
  mortality at 0.03 µg/mL: 5.8%
  mortality at 0.1 µg/mL: 22.3%
  mortality at 0.3 µg/mL: 44.6%
  mortality at 1 µg/mL: 48.9%
  mortality at 10 µg/mL: 70.9%
  mortality at 100 µg/mL: 59%
  mortality at 1000 µg/mL: 53.5%
[2]; Halotydeus destructor, 24 h
  LC50: 14.1 µg/mL (≈ 33.2 µM)
[3]; [8]
  mortality at 0.001 µg/mL: 0%
  mortality at 0.01 µg/mL: 0%
  mortality at 0.1 µg/mL: 64.9%
  mortality at 0.3 µg/mL: 98.7%
  mortality at 1 µg/mL: 100%
  mortality at 10 µg/mL: 100%
  mortality at 100 µg/mL: 100%
[3]; Halotydeus destructor, 24 h
  LC50: 0.085 µg/mL (≈ 0.201 µM)

## CC(C)c1cc(Oc2ccccc2)cc(C(C)C)c1NC(=S)NC(C)(C)C [Diafenthiuron]
[1]; [6]
  mortality at 0.03 µg/mL: 13.9%
  mortality at 0.3 µg/mL: 15.6%
  mortality at 3 µg/mL: 13%
  mortality at 30 µg/mL: 21.5%
  mortality at 300 µg/mL: 64.1%
  mortality at 3000 µg/mL: 100%
  mortality at 30000 µg/mL: 100%
  mortality at 90000 µg/mL: 100%
[2]; [7]
  mortality at 0.03 µg/mL: 3.9%
  mortality at 0.3 µg/mL: 10.6%
  mortality at 3 µg/mL: 13.2%
  mortality at 30 µg/mL: 15.7%
  mortality at 300 µg/mL: 39.5%
  mortality at 3000 µg/mL: 75.5%
  mortality at 30000 µg/mL: 100%
  mortality at 90000 µg/mL: 100%
[2]
  difference between insecticide-susceptible and resistant populations in response (in words): significant population differences
[4]; product rate 400 mL/ha
  % Control (33 DAA2): 54%

## CNC(=O)CSP(=O)(OC)OC [Omethoate]
[1]; [6]
  mortality at 0.0029 µg/mL: 7.6%
  mortality at 0.029 µg/mL: 10.1%
  mortality at 0.29 µg/mL: 32.1%
  mortality at 2.9 µg/mL: 95.8%
  mortality at 29 µg/mL: 100%
  mortality at 290 µg/mL: 100%
  mortality at 2900 µg/mL: 100%
[1]
  LC50: 0.348 µg/mL (≈ 1.63 µM)
[2]; [7]
  mortality at 0.0029 µg/mL: 16.1%
  mortality at 0.029 µg/mL: 18.9%
  mortality at 0.29 µg/mL: 17.2%
  mortality at 2.9 µg/mL: 47.5%
  mortality at 29 µg/mL: 100%
  mortality at 290 µg/mL: 100%
  mortality at 2900 µg/mL: 100%
[2]; Halotydeus destructor, 24 h
  LC50: 0.935 µg/mL (≈ 4.39 µM)
[2]
  difference between insecticide-susceptible and resistant populations in response (in words): no statistically significant difference
[3]; [8]
  mortality at 0.003 µg/mL: 0%
  mortality at 0.03 µg/mL: 2.8%
  mortality at 0.3 µg/mL: 11.7%
  mortality at 0.9 µg/mL: 55.3%
  mortality at 2.9 µg/mL: 98.1%
  mortality at 29 µg/mL: 100%
  mortality at 290 µg/mL: 100%
  mortality at 2900 µg/mL: 100%
[3]; Halotydeus destructor, 24 h
  LC50: 0.681 µg/mL (≈ 3.19 µM)
[4]; product rate 100 mL/ha
  % Control (33 DAA2): 74%

## Clc1ccccc1-c1nnc(-c2ccccc2Cl)nn1 [Prophesy, Clofentezine]
[5]
  Biomass and vigor (0-10), 42 DAA2: 4.9
  NDVI, 42 DAA2: 0.64
  % Incidence mite damage, 42 DAA2: 52.0%
  Biomass and vigor (0-10), Pre-spray: 4.0 a
  NDVI, Pre-spray: 0.53 a
  % Incidence mite damage, Pre-spray: 94.0 a %
[5]; versus untreated, P<0.05
  turf biomass and vigor and NDVI (in words): also improved

## CC(C)(C)c1ccc(CSc2cnn(C(C)(C)C)c(=O)c2Cl)cc1 [Pyridaben]
[3]; 24 hours exposure, highest rates tested
  mortality even at the highest rates: less than 50%
[3]; [8]
  mortality at 0.02 µg/mL: 0%
  mortality at 0.2 µg/mL: 0%
  mortality at 2 µg/mL: 0%
  mortality at 20 µg/mL: 0%
  mortality at 60 µg/mL: 0%
  mortality at 200 µg/mL: 9%
  mortality at 599 µg/mL: 23.4%
  mortality at 999 µg/mL: 45.5%
  mortality at 1998 µg/mL: 27.5%
[3]; laboratory bioassay, 24 hours exposure
  efficacy against RLEM (in words): not efficacious
[3]; range of concentrations tested 0.01998-1998 mg a.i./L
  highest mortality observed: 45%

## Abamectin [Thumper]
[5]
  Biomass and vigor (0-10), 42 DAA2: 4.4
  NDVI, 42 DAA2: 0.58
  % Incidence mite damage, 42 DAA2: 57.0%
  Biomass and vigor (0-10), Pre-spray: 3.9 a
  NDVI, Pre-spray: 0.52 a
  % Incidence mite damage, Pre-spray: 95.3 a %
